Experiments:
[1] = Serum clinical chemistries in male Sprague-Dawley rats after dietary admixture; format: in vivo, Sprague-Dawley rat; settings: 0.3% diet, 4 days, N=5
From the text: (§1) A typical experiment consists of 4-6 groups of rats (N=5 per group) with 1 group being a control which receives no MDL compound and the other groups being treated with 0.3% MDL compound. Some of the compounds are either repeated at 0.3% or evaluated again at the lower dose of 0.1%. House Male Sprague-Dawley rats, 50-100 g, (Harlan Laboratories, Indianapolis, Ind.) in groups of 5, feeding ad libitum water and Purina Rodent chow (#5002) with or without MDL compound as a dietary admixture for 4 days. Make dietary admixtures (0.3%) by mixing 1.2 grams of an MDL compound with 400 grams of Purina rodent chow (#5002). Mix the MDL compound with approximately 50 grams of food using a mortar and pestle. This is added to the remainder of the food and mixed for 3 hours on a rotary mixer. In the morning of day 5, anesthetize non-fasted rats with carbon dioxide, and collect blood by cardiac puncture. Sacrifice rats by cervical dislocation. Record body weights and liver weights in grams. Record food consumption as grams.cndot.day^-1 .cndot.rat^-1. Deaths are recorded as mortality. Use aliquots of fresh serum for clinical chemistries, thiobarbituric acid reactive substances (TBARS) and conjugated diene measurements. Freeze aliquots of serum (~0.5mL) and whole livers at -20° C. for compound and metabolite concentration determination at a later time.
Allow blood to clot at room temperature for 30 minutes. Obtain serum after centrifugation for 10 min at 4° C. at 3000 rpm in a Beckman J-6M/E centrifuge with a JS-4.2 rotor. Analyze fresh serum by a COBAS MIRA S autoanalyzer (Roche Diagnostics) using Roche diagnostic reagents for the following clinical chemistry measurements: alkaline phosphatase (ALP, kit #44553), alanine transaminase (ALT, kit #42375), aspartate aminotransferase (AST, kit #42381), total cholesterol (CHOL, kit #44334), triglyceride (TG, kit #44120), and glucose (GLU, kit #44558). Calculate ALP, ALT, and AST as units/L. Calculate cholesterol, triglycerides, and glucose as mg/dL.

[2] = test system: oxidation of serum lipids; assay: Thiobarbituric acid reactive substances (TBARS) assay in serum of treated rats; format: in vivo, Sprague-Dawley rat; settings: 0.3% diet, 4 days, male rats, N=5; CuSO4 oxidation of serum, 37° C., 3 hr
From the text: as §1, with “Sacrifice rats by cervical dislocation. Record body weights and liver weights in grams. Record food consumption as grams.cndot.day^-1 .cndot.rat^-1.” left out, “Use aliquots of fresh serum for clinical chemistries, thiobarbituric acid reactive substances (TBARS) and conjugated diene measurements. Freeze aliquots of serum (~0.5mL) and whole livers at -20° C. for compound and metabolite concentration determination at a later time.” left out
In this assay the oxidation of serum lipids is initiated with CuSO4, resulting in the formation of aldehydes, such as malondialdehyde (MDA). Upon incubation with thiobarbituric acid, the absorbance of the aldehydes can be detected at 530-540 nm. […] Measure absorbances at 540 nm using a Biotek model EL311 microplate reader. The nmoles of MDA produced are calculated from a standard curve of 0 to 10 nmoles of MDA prepared from malonaldehyde bis(dimethylacetal). […]

[3] = Animal parameters in male Sprague-Dawley rats; format: in vivo, Sprague-Dawley rat; settings: 0.3% diet, 4 days; for body wt. as a percent of control / food (grams eaten per day per rat) as a percent of control / lw/bw (liver weight/body weight) as a percent of control: N=5; for mortality at 96 h: rat, in vivo, po, N=5, read-out: mortality (deaths per group)
From the text: as §1

oxidation of lipids = assay: Conjugated diene determination (lag phase) in pooled serum of treated rats; format: in vivo, Sprague-Dawley rat; settings: 0.3% diet, 4 days; mean of 2 determinations of pooled samples, N=5; control = 61 min.
From the text: as §1, with “Use aliquots of fresh serum for clinical chemistries, thiobarbituric acid reactive substances (TBARS) and conjugated diene measurements. Freeze aliquots of serum (~0.5mL) and whole livers at -20° C. for compound and metabolite concentration determination at a later time.” left out
Conjugated diene lag phase is another indicator of the oxidation of lipids. […] Measure the absorbances of all cuvettes and set the instrument baseline to zero using the lowest absorbing sample. […] Record the absorbance of each cuvette at 2 min intervals for a period of 840 min. […]

ICAM-1 = settings: vascular endothelial cells; Mauri, N. et al.; cited from earlier work

| Structure (SMILES) | ALP (alkaline phosphatase) as a percent of control [1] [%] | ALT (alanine aminotransferase) as a percent of control [1] [%] | AST (aspartate aminotransferase) as a percent of control [1] [%] | CHOL (total cholesterol) as a percent of control [1] [%] | GLUC (glucose) as a percent of control [1] [%] | TRIG (triglycerides) as a percent of control [1] [%] | TBARS (thiobarbituric acid reactive substances) as a percent of control [2] [%] | body wt. as a percent of control [3] [%] | food (grams eaten per day per rat) as a percent of control [3] [%] | lw/bw (liver weight/body weight) as a percent of control [3] [%] | mortality at 96 h [3] [%] | CONJ. DIENE (conjugated diene lag phase) (oxidation of lipids) [min] | inhibition of cytokine-induced expression of ICAM-1 (ICAM-1) |
| --- | --- | --- | --- | --- | --- | --- | --- | --- | --- | --- | --- | --- | --- |
| CC(C)(C)c1cc(OC[Si](C)(C)c2ccco2)cc(C(C)(C)C)c1O [106,939] | 123 | 92 | 106 | 120 | 83 | 108 | 64 | 92 | 88 | 130 | 0 | – | – |
| CC(C)(C)c1cc(OC[Si](C)(C)c2cccs2)cc(C(C)(C)C)c1O [107,965] | 137 | 96 | 89 | 121 | 86 | 90 | 57 | 84 | 84 | 118 | 0 | 273 | – |
| CC(=O)N[C@@H](CS)C(=O)O [N-acetylcysteine] | – | – | – | – | – | – | – | – | – | – | – | – | but not ICAM-1 |
| S=C(S)N1CCCC1 [pyrollidine dithiocarbamate] | – | – | – | – | – | – | – | – | – | – | – | – | but not ICAM-1 |

From patent US6121463A, “Alkyl-4-silylheterocyclic phenols and thiophenols useful as antioxidant agents” (priority 1998, dated 2000)
